Measurements as given in ChEMBL document CHEMBL2429824, “Computer-assisted design of dual-target anti-HIV-1 compounds” (Med Chem Res, 2013).

Each compound was assayed against Human immunodeficiency virus type 1 reverse transcriptase (Human immunodeficiency virus 1, UniProt Q72547) (assay: Inhibition of HIV-1 reverse transcriptase). Settings: not given.
`COc1cc([S+]([O-])c2cccc(N)c2C#N)cc(C(F)(F)F)c1` (centres undefined) gave an IC50 of 0.912 µM.
For `N#Cc1c(N)cccc1[S+]([O-])c1cc(Cl)ccc1Cl` (centres undefined), the IC50 was 6.31 µM.
With `COc1ccc(S(=O)(=O)c2cccc(N)c2C#N)cc1` the IC50 was 13.2 µM.

Each compound was assayed on Human immunodeficiency virus 1 (assay: Antiviral activity against HIV-1 infected in human MT-4 cells). Settings: Human immunodeficiency virus 1, MT4.
Assay type: functional, organism-based
Compound `[N-]=[N+]=N[C@H]1C[C@H](n2cnc3nc(N)nc(OCc4ccccc4)c32)O[C@@H]1CO` has an IC50 of 7.94 µM.
`COc1nc(N)nc2ncn([C@H]3C[C@H](N=[N+]=[N-])[C@@H](CO)O3)c12` showed an IC50 of 8.91 µM.
`CCCCNc1nc(N)nc2ncn([C@H]3C[C@H](N=[N+]=[N-])[C@@H](CO)O3)c12` was tested, and the IC50 was 28.8 µM.
`CCCNc1nc(N)nc2ncn([C@H]3C[C@H](N=[N+]=[N-])[C@@H](CO)O3)c12` was tested, and the IC50 was 12 µM.
For `[N-]=[N+]=N[C@H]1C[C@H](n2cnc3nc(N)nc(O)c32)O[C@@H]1CO`, the IC50 was 5.01 µM.
Compound `[N-]=[N+]=N[C@H]1C[C@H](n2cnc3nc(N)nc(Oc4ccccc4)c32)O[C@@H]1CO` has an IC50 of 28.2 µM.
For `[N-]=[N+]=N[C@H]1C[C@H](n2cnc3nc(N)nc(Cl)c32)O[C@@H]1CO`, the IC50 was 6.03 µM.
Compound `[N-]=[N+]=N[C@H]1C[C@H](n2cnc3nc(N)nc(N4CCCC4)c32)O[C@@H]1CO` has an IC50 of 7.94 µM.
`[N-]=[N+]=N[C@H]1C[C@H](n2cnc3nc(N)nc(N4CCC4)c32)O[C@@H]1CO` showed an IC50 of 8.91 µM.
For `[N-]=[N+]=N[C@H]1C[C@H](n2cnc3nc(N)nc(OC4CCC4)c32)O[C@@H]1CO`, the IC50 was 5.01 µM.
Work on `CCNc1nc(N)nc2ncn([C@H]3C[C@H](N=[N+]=[N-])[C@@H](CO)O3)c12` yielded an IC50 of 17 µM.
`CNc1nc(N)nc2ncn([C@H]3C[C@H](N=[N+]=[N-])[C@@H](CO)O3)c12` gave an IC50 of 52.5 µM.
In the case of `CCN(C)c1nc(N)nc2ncn([C@H]3C[C@H](N=[N+]=[N-])[C@@H](CO)O3)c12`, the IC50 is reported as 12 µM.
Compound `[N-]=[N+]=N[C@H]1C[C@H](n2cnc3nc(N)nc(NC4CC4)c32)O[C@@H]1CO` has an IC50 of 18.2 µM.
`CN(C)c1nc(N)nc2ncn([C@H]3C[C@H](N=[N+]=[N-])[C@@H](CO)O3)c12` gave an IC50 of 20.9 µM.
`CC(C)Oc1nc(N)nc2ncn([C@H]3C[C@H](N=[N+]=[N-])[C@@H](CO)O3)c12` gave an IC50 of 21.9 µM.
With `[N-]=[N+]=N[C@H]1C[C@H](n2cnc3nc(N)nc(NC4CCC4)c32)O[C@@H]1CO` the IC50 was 14.1 µM.
`N#Cc1c(N)cccc1S(=O)(=O)c1cccc(C(F)(F)F)c1` gave an IC50 of 34.7 µM.
Compound `COc1cccc(S(=O)(=O)c2cccc(N)c2C#N)c1` has an IC50 of 0.912 µM.
With `[N-]=[N+]=N[C@H]1C[C@H](n2cnc3nc(N)nc(NCCc4ccccc4)c32)O[C@@H]1CO` the IC50 was 112 µM.
`CCCN(C)c1nc(N)nc2ncn([C@H]3C[C@H](N=[N+]=[N-])[C@@H](CO)O3)c12` gave an IC50 of 11 µM.
In the case of `[N-]=[N+]=N[C@H]1C[C@H](n2cnc3nc(N)nc(N)c32)O[C@@H]1CO`, the IC50 is reported as 2 µM.
`CCCOc1nc(N)nc2ncn([C@H]3C[C@H](N=[N+]=[N-])[C@@H](CO)O3)c12` showed an IC50 of 8.91 µM.
Compound `CN(c1nc(N)nc2ncn([C@H]3C[C@H](N=[N+]=[N-])[C@@H](CO)O3)c12)C1CC1` has an IC50 of 3.98 µM.
In the case of `CCOc1nc(N)nc2ncn([C@H]3C[C@H](N=[N+]=[N-])[C@@H](CO)O3)c12`, the IC50 is reported as 22.9 µM.
With `CCCCOc1nc(N)nc2ncn([C@H]3C[C@H](N=[N+]=[N-])[C@@H](CO)O3)c12` the IC50 was 19.1 µM.
